Tested on: MCF-7 breast cancer cells
Experiment: Microarray gene expression analysis (Agilent whole human genome 4 x 44K; compound vs DMSO, LIMMA log2 fold change)
Assay type: cell-based
Conditions: cell cycle genes

Compound: Oc1cccc(-c2nc(N3CCOCC3)c3oc4ncccc4c3n2)c1 [PI-103]
- TUBB3 log2FC (Gene 10381): -0.59
- ANAPC10 log2FC (Gene 10393): 0.20
- NDRG1 log2FC (Gene 10397): 1.49
- GNB2L1 log2FC (Gene 10399): -0.0332
- PRMT5 log2FC (Gene 10419): -0.13
- MAD2L2 log2FC (Gene 10459): 0.16
- TACC3 log2FC (Gene 10460): -0.29
- CREB3 log2FC (Gene 10488): -0.0661
- MYBBP1A log2FC (Gene 10514): -0.30
- CIB1 log2FC (Gene 10519): -0.08
- SSSCA1 log2FC (Gene 10534): -0.27
- DCTN2 log2FC (Gene 10540): 0.11
- SMC2 log2FC (Gene 10592): 0.63
- ERN2 log2FC (Gene 10595): -0.68
- USP16 log2FC (Gene 10600): 0.68
- HEXIM1 log2FC (Gene 10614): -0.43
- SPAG5 log2FC (Gene 10615): 0.36
- STAMBP log2FC (Gene 10617): 0.27
- TXNIP log2FC (Gene 10628): 2.21
- PDPN log2FC (Gene 10630): -0.0347
- RGS14 log2FC (Gene 10636): 0.71
- CTCF log2FC (Gene 10664): -0.22
- CGRRF1 log2FC (Gene 10668): 0.54
- CGREF1 log2FC (Gene 10669): 0.00665
- USP39 log2FC (Gene 10713): -0.0422
- NUDC log2FC (Gene 10726): -0.38
- PLK4 log2FC (Gene 10733): 0.52
- STAG3 log2FC (Gene 10734): 0.43
- STAG2 log2FC (Gene 10735): 1.19
- NES log2FC (Gene 10763): -0.28
- PLK2 log2FC (Gene 10769): -0.93
- NEK6 log2FC (Gene 10783): -0.68
- SDCCAG8 log2FC (Gene 10806): 0.62
- TUBGCP2 log2FC (Gene 10844): 0.037
- LILRB1 log2FC (Gene 10859): -0.21
- USP19 log2FC (Gene 10869): 0.38
- BLCAP log2FC (Gene 10904): -0.47
- TXNL4A log2FC (Gene 10907): -0.46
- SUGT1 log2FC (Gene 10910): 0.24
- GADD45G log2FC (Gene 10912): -0.19
- EHMT2 log2FC (Gene 10919): 0.25
- BTG3 log2FC (Gene 10950): 0.00788
- MAPRE2 log2FC (Gene 10982): -0.34
- KIF2C log2FC (Gene 11004): 0.44
- TLK2 log2FC (Gene 11011): 0.62
- RAB35 log2FC (Gene 11021): -0.44
- TDRKH log2FC (Gene 11022): 0.0086
- PIM2 log2FC (Gene 11040): -0.54
- UBE2C log2FC (Gene 11065): -0.18
- TRIOBP log2FC (Gene 11078): 0.53
- NUPL2 log2FC (Gene 11097): -0.024
- KATNA1 log2FC (Gene 11104): 0.67
- PRDM4 log2FC (Gene 11108): 0.26
- CIT log2FC (Gene 11113): 0.53
- ZWINT log2FC (Gene 11130): -0.23
- CDC37 log2FC (Gene 11140): -0.17
- LZTS1 log2FC (Gene 11178): -0.98
- WDR6 log2FC (Gene 11180): -0.36
- RASSF1 log2FC (Gene 11186): 0.72
- CEP250 log2FC (Gene 11190): -0.14
- PMF1 log2FC (Gene 11243): -0.18
- DCTN3 log2FC (Gene 11258): 0.31
- TUSC2 log2FC (Gene 11334): -0.50
- OIP5 log2FC (Gene 11339): 0.0365
- MAPRE1 log2FC (Gene 22919): -0.57
- MAPRE3 log2FC (Gene 22924): 0.0211
- TRIM32 log2FC (Gene 22954): -0.32
- TPX2 log2FC (Gene 22974): -0.00173
- AZI1 log2FC (Gene 22994): 0.93
- CEP152 log2FC (Gene 22995): 0.55
- USP33 log2FC (Gene 23032): 0.88
- WAPAL log2FC (Gene 23063): 0.61
- TRIM35 log2FC (Gene 23087): 0.20
- CLASP2 log2FC (Gene 23122): 0.55
- POGZ log2FC (Gene 23126): 0.58
- PHF8 log2FC (Gene 23133): -0.18
- SMC5 log2FC (Gene 23137): -0.36
- FBXL7 log2FC (Gene 23194): 0.0429
- PSME4 log2FC (Gene 23198): -0.07
- RRS1 log2FC (Gene 23212): -0.91
- NUP210 log2FC (Gene 23225): -0.44
- PLCB1 log2FC (Gene 23236): 1.31
- BOP1 log2FC (Gene 23246): -0.18
- NUP160 log2FC (Gene 23279): -0.78
- FBXW11 log2FC (Gene 23291): -0.28
- UBR2 log2FC (Gene 23304): 0.76
- USP22 log2FC (Gene 23326): 0.07
- CLASP1 log2FC (Gene 23332): -0.36
- PPP1R13B log2FC (Gene 23368): 0.0642
- DICER1 log2FC (Gene 23405): -0.87
- SIRT1 log2FC (Gene 23411): 1.17
- ITGB3BP log2FC (Gene 23421): 0.69
- PES1 log2FC (Gene 23481): -0.38
- ZFYVE26 log2FC (Gene 23503): 0.40
- SCRIB log2FC (Gene 23513): 0.03
- CCNDBP1 log2FC (Gene 23582): 0.71
- CD2AP log2FC (Gene 23607): 0.81
- NUP62 log2FC (Gene 23636): -0.63
- RABGAP1 log2FC (Gene 23637): 0.55
- PPP1R15A log2FC (Gene 23645): 0.51
- POLA2 log2FC (Gene 23649): -0.87
- ZNF318 log2FC (Gene 24149): 0.53
- RAD54B log2FC (Gene 25788): 0.42
- NIPBL log2FC (Gene 25836): 0.88
- INTS7 log2FC (Gene 25896): -0.23
- AHCTF1 log2FC (Gene 25909): 0.40
- SIN3A log2FC (Gene 25942): 0.89
- SH2B1 log2FC (Gene 25970): -0.49
- EGFL6 log2FC (Gene 25975): 0.03
- SENP6 log2FC (Gene 26054): 0.54
- FBXO6 log2FC (Gene 26270): 0.37
- FBXO5 log2FC (Gene 26271): 0.49
- NUPR1 log2FC (Gene 26471): 0.07
- AATF log2FC (Gene 26574): -0.41
- CKAP2 log2FC (Gene 26586): 0.63
- HBP1 log2FC (Gene 26959): 2.74
- MLH3 log2FC (Gene 27030): 0.23
- MTBP log2FC (Gene 27085): 0.79
- TJP3 log2FC (Gene 27134): 0.31
- VPS4A log2FC (Gene 27183): -0.29
- PDCD4 log2FC (Gene 27250): 1.70
- APEX2 log2FC (Gene 27301): -0.66
- UBE2S log2FC (Gene 27338): -0.66
- EML4 log2FC (Gene 27436): -0.50
- PPP2R3B log2FC (Gene 28227): 0.28
- MCTS1 log2FC (Gene 28985): -0.21
- HIPK2 log2FC (Gene 28996): -0.14
- BRD7 log2FC (Gene 29117): 0.53
- RACGAP1 log2FC (Gene 29127): 0.55
- UHRF1 log2FC (Gene 29128): -0.33
- PSMC3IP log2FC (Gene 29893): -0.14
- GPSM2 log2FC (Gene 29899): 0.32
- SAC3D1 log2FC (Gene 29901): 0.09
- RPA4 log2FC (Gene 29935): 0.55
- ANAPC4 log2FC (Gene 29945): 0.43
- SERTAD1 log2FC (Gene 29950): -0.75
- CUZD1 log2FC (Gene 50624): 0.31
- PARD6A log2FC (Gene 50855): 0.11
- GMNN log2FC (Gene 51053): -0.12
- RPS27L log2FC (Gene 51065): 0.28
- MLXIPL log2FC (Gene 51085): 0.34
- SBDS log2FC (Gene 51119): 0.46
- DYNC1LI1 log2FC (Gene 51143): 0.52
- ING4 log2FC (Gene 51147): 1.59
- TUBE1 log2FC (Gene 51175): 0.0372
- LEF1 log2FC (Gene 51176): -0.89
- HERC5 log2FC (Gene 51191): 0.75
- NUSAP1 log2FC (Gene 51203): 0.74
- DUSP13 log2FC (Gene 51207): 0.0185
- WAC log2FC (Gene 51322): 0.91
- DACT1 log2FC (Gene 51339): 0.04
- FZR1 log2FC (Gene 51343): -0.32
- TAOK3 log2FC (Gene 51347): 1.14
- PRKAG2 log2FC (Gene 51422): -0.54
- SNX9 log2FC (Gene 51429): 0.42
- ANAPC7 log2FC (Gene 51434): -0.32
- LCMT1 log2FC (Gene 51451): 0.00313

Source: article PMC4303209, “A novel phosphatidylinositol 3-kinase (PI3K) inhibitor directs a potent FOXO-dependent, p53-independent cell cycle arrest phenotype characterized by the differential induction of a subset of FOXO-regulated genes” (Breast Cancer Research : BCR, 2014)
